Patent US11147272B2, “Pyridone compounds and agricultural and horticultural fungicides comprising the same as active ingredients” (MITSUI CHEMICALS AGRO, INC., priority 2017, dated 2021)

Columns and labels:
Magnaporthe grisea = assay: whole plant or invertebrate; format: in vivo; settings: Blast on rice; class of control value
Alternaia brassicicola = assay: Test Example C: Alternaria sooty spot on cabbage; format: in vivo; settings: Alternaria sooty spot on cabbage; class of control value
Text: Seeds of a test plant (cabbage variety: Shikidori) were planted and cultivated until the cotyledons extended.
<Control Value> Control value=100{1−(n/3)}

Puccinia recondita = assay: Test Example E: Brown rust on wheat; format: in vivo; settings: Brown rust on wheat; class of control value
Phytophthora infestans = assay: whole plant or invertebrate; format: in vivo; settings: Late blight on tomato; class of control value
Botrytis cinerea = assay: Test Example B: Gray mold on tomato; settings: Gray mold on tomato; class of control value
Plasmopara viticola = assay: Test Example G: Downy mildew on vine; settings: Downy mildew on vine (Neomuscat); 250 ppm spray, 2.5 ml/pot; assessed 7 to 10 days after inoculation
[1] = system: Colletotrichum orbiculare; assay: Test Example H: Anthracnose on cucumber; settings: Anthracnose on cucumber (Sagami Hanjiro); 250 ppm spray, 2.5 ml/pot; assessed 6 to 10 days after inoculation
[2] = system: Blumeria graminis f. sp. hordei; assay: Test Example D: Powdery mildew on barley; settings: Powdery mildew on barley; class of control value

Compound: CCn1c(-c2c(F)cccc2F)c(C(C)O)cc(Cl)c1=O (stereo not shown) [compound 17]
- Test A control value class (Magnaporthe grisea): L (50% or less control value)
- Test C control value class (Alternaia brassicicola): H (more than 50% control value)
- Test E control value class (Puccinia recondita): H (more than 50% control value)
- Test F control value class (Phytophthora infestans): H (more than 50% control value)
- Test B control value class (Botrytis cinerea): H (more than 50% control value)
- Test G control value class (Plasmopara viticola): H (more than 50% control value)
- Test H control value class [1]: H (more than 50% control value)
- Test D control value class [2]: L (50% or less control value)

Compound: CCn1c(-c2c(F)cccc2F)c(C(C)OC)cc(Cl)c1=O (stereo not shown) [compound 18]
- Test A control value class (Magnaporthe grisea): H (more than 50% control value)
- Test C control value class (Alternaia brassicicola): H (more than 50% control value)
- Test E control value class (Puccinia recondita): H (more than 50% control value)
- Test F control value class (Phytophthora infestans): H (more than 50% control value)
- Test B control value class (Botrytis cinerea): H (more than 50% control value)
- Test G control value class (Plasmopara viticola): H (more than 50% control value)
- Test H control value class [1]: H (more than 50% control value)
- Test D control value class [2]: H (more than 50% control value)

Compound: CCOC(C)c1cc(Cl)c(=O)n(CC)c1-c1c(F)cccc1F (stereo not shown) [compound 19]
- Test A control value class (Magnaporthe grisea): H (more than 50% control value)
- Test C control value class (Alternaia brassicicola): H (more than 50% control value)
- Test E control value class (Puccinia recondita): H (more than 50% control value)
- Test F control value class (Phytophthora infestans): L (50% or less control value)
- Test B control value class (Botrytis cinerea): H (more than 50% control value)
- Test G control value class (Plasmopara viticola): H (more than 50% control value)
- Test H control value class [1]: H (more than 50% control value)
- Test D control value class [2]: H (more than 50% control value)

Compound: CCn1c(-c2c(F)cccc2F)c(C(C)=O)cc(Cl)c1=O [compound 22]
- Test A control value class (Magnaporthe grisea): L (50% or less control value)
- Test C control value class (Alternaia brassicicola): H (more than 50% control value)
- Test E control value class (Puccinia recondita): H (more than 50% control value)
- Test F control value class (Phytophthora infestans): L (50% or less control value)
- Test B control value class (Botrytis cinerea): H (more than 50% control value)
- Test G control value class (Plasmopara viticola): H (more than 50% control value)
- Test H control value class [1]: H (more than 50% control value)
- Test D control value class [2]: L (50% or less control value)

Compound: CCn1c(-c2c(F)cccc2F)c(C(C)(C)O)cc(Cl)c1=O [compound 23]
- Test A control value class (Magnaporthe grisea): H (more than 50% control value)
- Test C control value class (Alternaia brassicicola): H (more than 50% control value)
- Test E control value class (Puccinia recondita): H (more than 50% control value)
- Test F control value class (Phytophthora infestans): L (50% or less control value)
- Test B control value class (Botrytis cinerea): H (more than 50% control value)
- Test G control value class (Plasmopara viticola): L (50% or less control value)
- Test H control value class [1]: H (more than 50% control value)
- Test D control value class [2]: H (more than 50% control value)

Compound: CC=C(C)c1cc(Cl)c(=O)n(CC)c1-c1c(F)cccc1F [compound 28]
- Test A control value class (Magnaporthe grisea): H (more than 50% control value)
- Test C control value class (Alternaia brassicicola): H (more than 50% control value)
- Test E control value class (Puccinia recondita): H (more than 50% control value)
- Test F control value class (Phytophthora infestans): L (50% or less control value)
- Test B control value class (Botrytis cinerea): H (more than 50% control value)
- Test G control value class (Plasmopara viticola): H (more than 50% control value)
- Test H control value class [1]: H (more than 50% control value)
- Test D control value class [2]: H (more than 50% control value)

Compound: CCC(C)c1ccc(=O)n(CC)c1-c1c(F)cc(F)cc1F (stereo not shown) [compound 31]
- Test A control value class (Magnaporthe grisea): H (more than 50% control value)
- Test C control value class (Alternaia brassicicola): H (more than 50% control value)
- Test E control value class (Puccinia recondita): H (more than 50% control value)
- Test F control value class (Phytophthora infestans): L (50% or less control value)
- Test B control value class (Botrytis cinerea): H (more than 50% control value)
- Test G control value class (Plasmopara viticola): H (more than 50% control value)
- Test H control value class [1]: H (more than 50% control value)
- Test D control value class [2]: H (more than 50% control value)

Compound: CCC(C)c1cc(Br)c(=O)n(CC)c1-c1c(F)cc(F)cc1F (stereo not shown) [compound 32]
- Test A control value class (Magnaporthe grisea): H (more than 50% control value)
- Test C control value class (Alternaia brassicicola): H (more than 50% control value)
- Test E control value class (Puccinia recondita): H (more than 50% control value)
- Test F control value class (Phytophthora infestans): L (50% or less control value)
- Test B control value class (Botrytis cinerea): H (more than 50% control value)
- Test G control value class (Plasmopara viticola): L (50% or less control value)
- Test H control value class [1]: H (more than 50% control value)
- Test D control value class [2]: H (more than 50% control value)

Compound: CCC(C)c1cc(Cl)c(=O)n(CC)c1-c1c(F)cc(F)cc1F (stereo not shown) [compound 33]
- Test A control value class (Magnaporthe grisea): H (more than 50% control value)
- Test C control value class (Alternaia brassicicola): H (more than 50% control value)
- Test E control value class (Puccinia recondita): H (more than 50% control value)
- Test F control value class (Phytophthora infestans): L (50% or less control value)
- Test B control value class (Botrytis cinerea): H (more than 50% control value)
- Test G control value class (Plasmopara viticola): L (50% or less control value)
- Test H control value class [1]: H (more than 50% control value)
- Test D control value class [2]: H (more than 50% control value)

Compound: CCC(C)c1ccc(=O)n(CC)c1-c1c(F)cc(OC)cc1F (stereo not shown) [compound 34]
- Test A control value class (Magnaporthe grisea): H (more than 50% control value)
- Test C control value class (Alternaia brassicicola): H (more than 50% control value)
- Test E control value class (Puccinia recondita): H (more than 50% control value)
- Test F control value class (Phytophthora infestans): L (50% or less control value)
- Test B control value class (Botrytis cinerea): H (more than 50% control value)
- Test G control value class (Plasmopara viticola): H (more than 50% control value)
- Test H control value class [1]: H (more than 50% control value)
- Test D control value class [2]: H (more than 50% control value)

Compound: CCC(C)c1cc(Cl)c(=O)n(CC)c1-c1c(F)cc(OC)cc1F (stereo not shown) [compound 35]
- Test A control value class (Magnaporthe grisea): H (more than 50% control value)
- Test C control value class (Alternaia brassicicola): H (more than 50% control value)
- Test E control value class (Puccinia recondita): H (more than 50% control value)
- Test F control value class (Phytophthora infestans): L (50% or less control value)
- Test B control value class (Botrytis cinerea): H (more than 50% control value)
- Test G control value class (Plasmopara viticola): L (50% or less control value)
- Test H control value class [1]: H (more than 50% control value)
- Test D control value class [2]: H (more than 50% control value)

Compound: CCC(C)C1=C(c2c(F)cc(OC)cc2F)N(CC)C(=O)C(Br)C1 (stereo not shown) [compound 36]
- Test A control value class (Magnaporthe grisea): H (more than 50% control value)
- Test C control value class (Alternaia brassicicola): H (more than 50% control value)
- Test E control value class (Puccinia recondita): H (more than 50% control value)
- Test F control value class (Phytophthora infestans): L (50% or less control value)
- Test B control value class (Botrytis cinerea): H (more than 50% control value)
- Test G control value class (Plasmopara viticola): H (more than 50% control value)
- Test H control value class [1]: H (more than 50% control value)
- Test D control value class [2]: H (more than 50% control value)

Compound: CCn1c(-c2c(F)cc(F)cc2F)c(CC(C)C)ccc1=O [compound 37]
- Test A control value class (Magnaporthe grisea): H (more than 50% control value)
- Test C control value class (Alternaia brassicicola): L (50% or less control value)
- Test E control value class (Puccinia recondita): L (50% or less control value)
- Test F control value class (Phytophthora infestans): L (50% or less control value)
- Test B control value class (Botrytis cinerea): L (50% or less control value)
- Test G control value class (Plasmopara viticola): L (50% or less control value)
- Test H control value class [1]: L (50% or less control value)
- Test D control value class [2]: L (50% or less control value)

Compound: CCn1c(-c2c(F)cc(F)cc2F)c(CC(C)C)ccc1=O [compound 38]
- Test A control value class (Magnaporthe grisea): H (more than 50% control value)
- Test C control value class (Alternaia brassicicola): L (50% or less control value)
- Test E control value class (Puccinia recondita): H (more than 50% control value)
- Test F control value class (Phytophthora infestans): L (50% or less control value)
- Test B control value class (Botrytis cinerea): H (more than 50% control value)
- Test G control value class (Plasmopara viticola): L (50% or less control value)
- Test H control value class [1]: L (50% or less control value)
- Test D control value class [2]: H (more than 50% control value)

Compound: CCn1c(-c2c(F)cc(OC)cc2F)c(CC(C)C)ccc1=O [compound 39]
- Test A control value class (Magnaporthe grisea): H (more than 50% control value)
- Test C control value class (Alternaia brassicicola): H (more than 50% control value)
- Test E control value class (Puccinia recondita): H (more than 50% control value)
- Test F control value class (Phytophthora infestans): L (50% or less control value)
- Test B control value class (Botrytis cinerea): H (more than 50% control value)
- Test G control value class (Plasmopara viticola): H (more than 50% control value)
- Test H control value class [1]: H (more than 50% control value)
- Test D control value class [2]: H (more than 50% control value)

Compound: CCn1c(-c2c(F)cc(F)cc2F)c(CC(C)C)cc(Br)c1=O [compound 40]
- Test A control value class (Magnaporthe grisea): H (more than 50% control value)
- Test C control value class (Alternaia brassicicola): H (more than 50% control value)
- Test E control value class (Puccinia recondita): H (more than 50% control value)
- Test F control value class (Phytophthora infestans): L (50% or less control value)
- Test B control value class (Botrytis cinerea): H (more than 50% control value)
- Test G control value class (Plasmopara viticola): L (50% or less control value)
- Test H control value class [1]: H (more than 50% control value)
- Test D control value class [2]: H (more than 50% control value)

Compound: CCn1c(-c2c(F)cc(F)cc2F)c(CC(C)C)cc(Cl)c1=O [compound 41]
- Test A control value class (Magnaporthe grisea): H (more than 50% control value)
- Test C control value class (Alternaia brassicicola): H (more than 50% control value)
- Test E control value class (Puccinia recondita): H (more than 50% control value)
- Test F control value class (Phytophthora infestans): L (50% or less control value)
- Test B control value class (Botrytis cinerea): H (more than 50% control value)
- Test G control value class (Plasmopara viticola): H (more than 50% control value)
- Test H control value class [1]: H (more than 50% control value)
- Test D control value class [2]: H (more than 50% control value)
